Measurements taken from US20050143291A1, “Methods and compositions for modulating apoptosis” (priority 2003, published 2005).

What was measured:
CHO cells = experiment: Cell cycle analysis (FACS), CHO cells; assay type: cell-based, Chinese hamster; details: CHO cells treated with UPR inducer, versus exponentially growing cells
Procedure: (§1) Cell Cycle Analysis—Following seeding, exponentially growing cells were trypsinized at different days and fixed in 70% ethanol. The fixed cells were treated with PBS containing 0.1% (v/v) Triton X-100, 0.2 mg/ml DNase-free RNase, and 20 μg/ml propidium iodide (PI) for 30 min at room temperature. The cell cycle distributions were analyzed by fluorescence-activated cell sorting (FACS) analysis (FACstar; BD Biosciences). The cell cycle distribution measurements were repeated three to four times.
(§2) In both the vector-transfected and GRP78 overexpressing cells, the percentage of G1, S, and G2 cells is similar.

T24/83 cells = experiment: Cell cycle analysis (FACS), T24/83 cells; assay type: cell-based, human; details: T24/83 cells treated with UPR inducer
Procedure: as §1, §2

[1] = system: GRP78 Overexpression cells; experiment: % Survival (Colony Assay), GRP78 overexpression; assay type: cell-based; details: for % Survival (Colony Assay): GRP78 Overexpression; for effect of GRP78 overexpression on sensitivity to the drug: GRP78 overexpression versus control
Procedure: (§3) Experiments were also performed to determine the anti-apoptotic effect conferred by overexpression of GRP78. This task was completed.
(§4) Clonogenic Survival Assays—Four thousand cells were seeded into 10-cm-diameter dishes. […] After drug treatment, the cells were grown in fresh medium for 10 to 14 days. The colonies were washed with ice-cold PBS, fixed with methanol, and stained with 10% Giemsa staining solution. The surviving fraction was determined by dividing the number of the surviving colonies in the drug-treated cells by the number of colonies in the non-treated control groups.

Control cells = experiment: % Survival (Colony Assay), control cells; assay type: cell-based
Procedure: as §3, §4

caspase-7 = experiment: In vitro caspase-7 activation assay, cell-free extracts with cytochrome c and dATP; assay type: biochemical, Chinese hamster
Procedure: FIG. 5, Panel C depicts cytoplasmic extracts prepared from CHO and C.1 cells and incubated with (+) or without (−) 10 μM cytochrome c and the various amounts of dATP (mM) as indicated.
Among the executor caspases, caspase-7 has been reported to be associated with the ER. Upon induction of apoptosis, procaspase-7 (35 kDa) is first converted into a 32-kDa intermediate, which is further processed into active 20- and 11-kDa subunits. […] Upon longer exposure of the autoradiogram, the active 20- and 11-kDa forms were evident in the etoposide-treated cells. When GRP78 was overexpressed, a low level of caspase-7 activation was detected in both the non-treated and etoposide-treated cells. […] In addition, upon addition of cytochrome c, caspase-7 activation was higher in CHO cells than C.1 cells, as evidenced by the increase in the active 20- and 11-kDa forms in the CHO samples compared with the C.1 samples.
The cells were suspended in 5 volumes of a hypotonic buffer (5 mM Tris-HCl, pH 7.4, 5 mM KCl, 1.5 mM MgCl2, 0.1 mM EGTA, pH 8.0, and 1 mM dithiothreitol) in the presence of 2 μg/ml leupeptin, pepstatin, and aprotinin protease inhibitors. After incubation on ice for 20 min, sucrose was added to a final concentration of 250 mM, and the cells were disrupted by douncing eight times in a 1-ml Wheaton Dounce homogenizer. The homogenate was centrifuged twice at […] for 10 min. […]

GRP78 [2] = experiment: Suppression of GRP78 level by siRNA in MDA-MB-435 cells (Western blot); assay type: cell-based, human
Source text: (§5) The concentrations of siRNA Grp78 II used were indicated on top.
(§6) This translates to more death in the cells treated with Grp78(II) siRNA than control siRNA targeted against the unrelated green fluorescence protein (FIG. 16).

GRP78 [3] = experiment: Specificity of Grp78 siRNA in 293T cells (Western blot of GRP78, GRP94, HSP70); assay type: cell-based, human; details: β-actin loading control
Source text: as §5
When blasted against the human genomic sequence, this sequence is unique and in principle, should not affect any other human gene. […] The level of β-actin was used as loading control.

MDA-MB-435 cells = experiment: Etoposide-mediated cell death after siRNA in breast cancer cells; assay type: cell-based, human
Source text: as §6

[4] = biological target: T1, glucose regulated protein 78 (GRP78), wild-type, as present in CHO cells (endogenous) and C.1 cells … (hamster, UniProt G3I8R9 19-654); experiment: co-immunoprecipitation from CHO and C.1 whole cell extracts, Western blot
T1 construct: Protein in cell lysates used for co-immunoprecipitation, not purified; also called BiP; wild-type GRP78
T1 sequence (G3I8R9 19-654 limits assumed): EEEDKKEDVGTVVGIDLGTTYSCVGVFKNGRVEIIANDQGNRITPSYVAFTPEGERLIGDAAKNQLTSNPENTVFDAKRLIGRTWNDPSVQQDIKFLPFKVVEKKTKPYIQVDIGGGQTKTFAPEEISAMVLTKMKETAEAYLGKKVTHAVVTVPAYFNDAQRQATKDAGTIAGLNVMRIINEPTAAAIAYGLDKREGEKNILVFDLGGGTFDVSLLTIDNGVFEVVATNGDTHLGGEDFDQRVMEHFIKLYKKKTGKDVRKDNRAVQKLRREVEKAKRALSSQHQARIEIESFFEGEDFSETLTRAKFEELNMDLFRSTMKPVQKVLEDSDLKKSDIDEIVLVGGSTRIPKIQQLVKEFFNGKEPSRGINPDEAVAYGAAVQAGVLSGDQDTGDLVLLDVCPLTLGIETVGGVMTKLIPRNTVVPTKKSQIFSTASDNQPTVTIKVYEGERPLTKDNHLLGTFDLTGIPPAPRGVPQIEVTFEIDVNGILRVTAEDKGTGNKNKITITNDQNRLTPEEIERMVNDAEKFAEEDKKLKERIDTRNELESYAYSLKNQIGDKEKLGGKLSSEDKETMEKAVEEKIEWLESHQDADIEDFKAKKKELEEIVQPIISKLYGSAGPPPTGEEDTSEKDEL
Procedure: Co-immunoprecipitation Assays—2×10⁶ cells were lysed in 400 μl of extraction buffer (50 mM Tris-HCl, pH 7.5, 150 mM NaCl, 0.5% Nonidet P-40, and 0.5% deoxycholate, with protease inhibitor tablet (Roche Molecular Biochemicals)) and frozen and thawed three times. 500 μg of total protein extract from each sample was pretreated with 50 μl of protein A-Sepharose beads (Sigma) for 1 h at 4° C. prior to incubation with 5 μg of either anti-caspase-7 mouse monoclonal antibody or anticaspase-3 antibodies for 2 h. Following the incubation period, 50 μl of protein A-Sepharose beads was added, and the mixtures were rotated at 4° C. overnight. The beads were then washed five times with the extraction buffer. The immunoprecipitate was released from the washed beads by the addition of 30 μl of 1×SDS-PAGE sample loading buffer (50 mM Tris-HCl, pH 6.8, 100 mM dithiothreitol, 2% SDS, 0.1% bromphenol blue, 10% glycerol), followed by heating at 100° C. for 10 min. The supernatant obtained after centrifugation was resolved by SDS-PAGE and subjected to Western blot analysis to detect the co-immunoprecipitated proteins.

**Q.** For tunicamycin, which cell cycle distribution (CHO cells) is on record?
**A.** Its cell cycle distribution is “more cells in G1 and a dramatic reduction in S phase cells”.

**Q.** And the cell cycle distribution (T24/83 cells)?
**A.** The cell cycle distribution was “a higher percentage of G1 cells and a lower percentage in S phase”.

**Q.** What does the source list for `COc1cccc2c1C(=O)c1c(O)c3c(c(O)c1C2=O)C[C@@](O)(C(=O)CO)C[C@@H]3O[C@H]1C[C@H](N)[C@H](O)[C@H](C)O1` [Doxorubicin]?
**A.** % Survival (Colony Assay) ([1]; doxorubicin 0.2 μg/ml): 95%; % Survival (Colony Assay) ([1]; doxorubicin 0.4 μg/ml): 84%; % Survival (Colony Assay) ([1]; doxorubicin 0.6 μg/ml): 68%; % Survival (Colony Assay) ([1]; doxorubicin 0.8 μg/ml): 48%; % Survival (Colony Assay) ([1]; doxorubicin 1.0 μg/ml): 32%; effect of GRP78 overexpression on sensitivity to the drug [1]: confers resistance; % Survival (Colony Assay) (Control cells; doxorubicin 0.2 μg/ml): 80%; % Survival (Colony Assay) (Control cells; doxorubicin 0.4 μg/ml): 42%; % Survival (Colony Assay) (Control cells; doxorubicin 0.6 μg/ml): 2%; % Survival (Colony Assay) (Control cells; doxorubicin 0.8 μg/ml): 0%; % Survival (Colony Assay) (Control cells; doxorubicin 1.0 μg/ml): 0%

**Q.** `C/C=C(/C)C(=O)O[C@H]1C(C)=C2[C@H]([C@@H]1OC(=O)CCCCCCC)[C@@](C)(OC(C)=O)C[C@H](OC(=O)CCC)[C@@]1(O)[C@H]2OC(=O)[C@@]1(C)O` [thapsigargin] was tested. Which cell cycle distribution (CHO cells) did it give?
**A.** Its cell cycle distribution is “more cells in G1 and a dramatic reduction in S phase cells”.

**Q.** What about the cell cycle distribution (T24/83 cells) of the same molecule?
**A.** Its cell cycle distribution is “a higher percentage of G1 cells and a lower percentage in S phase”.

**Q.** Which results are given for `Nc1ncnc2c1ncn2[C@H]1C[C@H](O)[C@@H](COP(=O)(O)OP(=O)(O)OP(=O)(O)O)O1` [dATP]?
**A.** caspase-7 forms in CHO versus C.1 extracts (caspase-7; 1 mM dATP with cytochrome c): equivalent amounts of the 32- and 20-kDa forms; effect on GRP78-mediated suppression of caspase-7 activation (caspase-7; C.1 extracts in the presence of both cytochrome c and dATP): suppressive effect of the C.1 samples was reversed

**Q.** With `CC[C@@]1(O)C(=O)OCc2c1cc1n(c2=O)Cc2cc3ccccc3nc2-1` [Camptothecin] as the molecule, how does the “% Survival (Colony Assay)” value ([1]; camptothecin 5 ng/ml) read?
**A.** The value was 82%.

**Q.** And the “% Survival (Colony Assay)” value ([1]; camptothecin 20 ng/ml)?
**A.** Its value is 22%.

**Q.** And the “% Survival (Colony Assay)” value ([1]; camptothecin 60 ng/ml)?
**A.** The value was 2%.

**Q.** And the “effect of GRP78 overexpression on sensitivity to the drug” value [1]?
**A.** Its value is “confers resistance”.

**Q.** And the “% Survival (Colony Assay)” value (Control cells; camptothecin 5 ng/ml)?
**A.** The value was 68%.

**Q.** And the “% Survival (Colony Assay)” value (Control cells; camptothecin 20 ng/ml)?
**A.** The value was 0.7%.

**Q.** And the “% Survival (Colony Assay)” value (Control cells; camptothecin 60 ng/ml)?
**A.** The value was 0%.

**Q.** Which “siRNA concentration that significantly suppresses GRP78 level” value (GRP78 [2]) does the source give for “Grp78(II) siRNA: siRNA duplex 5′ AAGGTTACCCATGCAGTTGTT 3′ (SEQ ID NO:4) and complement (SEQ ID NO:17) targeting GRP78 (antisense AACAACTGCATGGGTAACCTT; listed as DNA, chemistry not given here; listed as Homo sapiens)” here?
**A.** Its value is ≥ 80 nM.

**Q.** What about the “effect on GRP78, GRP94 and HSP70 levels” value (GRP78 [3]) of the same molecule?
**A.** The value was “only GRP78 level is suppressed”.

**Q.** And the “cell death versus control siRNA against green fluorescence protein” value (MDA-MB-435 cells)?
**A.** The value was “more death”.

**Q.** What does the source list for `N.N.[Cl][Pt][Cl]` [Cisplatin]?
**A.** % Survival (Colony Assay) ([1]; cisplatin 3.3 μM): 60%; % Survival (Colony Assay) ([1]; cisplatin 6.6 μM): 50%; % Survival (Colony Assay) ([1]; cisplatin 9.9 μM): 27%; % Survival (Colony Assay) ([1]; cisplatin 13.0 μM): 16%; effect of GRP78 overexpression on sensitivity to the drug [1]: confers resistance; % Survival (Colony Assay) (Control cells; cisplatin 3.3 μM): 43%; % Survival (Colony Assay) (Control cells; cisplatin 6.6 μM): 3.7%; % Survival (Colony Assay) (Control cells; cisplatin 9.9 μM): 0%; % Survival (Colony Assay) (Control cells; cisplatin 13.0 μM): 0%

B1: procaspase-3 (endogenous, CHO and C.1 cells) (enzyme)
chain: MENTENSVDSKSIKNLEPKIIHGSESMDSGISLDNSYKMDYPEMGLCIIVNNKNFHKSTGMTSRSGTDVDAANLRETFRNLKYGVRNKNDLTREGIVELMRDVSKEDHSKRSSFVCVLLSHGEEGIIFGTNGPVDLKKITNFFRGDRCRSLTGKPKLFIIQACRGTELDCGIETDSGVGDDMACHKIPVEADFLYAYSTAPGYYSWRNSKDGSWFIQSLCAMLKQYADKLEFMHILTRVNRKVATEFESFSFDATFHAKKQIPCIVSMLTKELYFYH
notes: Zymogen form, in whole cell extracts
**Q.** Does B1 bind [4]?
**A.** Result: no binding
